Patent publication US8198302B2 (OXiGENE, Inc., priority 2004, dated 2012)

Tests used:
[1] = target: T1, Horseradish peroxidase (HRP) (Armoracia rusticana, UniProt P00433); assay: Peroxidase-mediated activation of catechols (HPLC loss of peak area); type: biochemical; conditions: for Relative Activation (% Control): relative to non-catechol control = 100; for Slope/Hrp: slope divided by HRP concentration (ug/ml): corrected disappearance
T1 construct: purchased Sigma P6782
T1 sequence (P00433 31-338 limits assumed): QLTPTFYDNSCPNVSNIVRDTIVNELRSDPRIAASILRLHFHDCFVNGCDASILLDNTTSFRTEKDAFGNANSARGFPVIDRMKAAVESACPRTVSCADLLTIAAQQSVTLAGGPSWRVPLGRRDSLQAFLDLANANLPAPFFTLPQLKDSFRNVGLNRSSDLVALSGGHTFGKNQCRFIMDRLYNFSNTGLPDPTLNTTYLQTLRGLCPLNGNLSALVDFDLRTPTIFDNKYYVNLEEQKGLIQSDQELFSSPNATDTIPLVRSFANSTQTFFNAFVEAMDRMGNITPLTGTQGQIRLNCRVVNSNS
Method: Methods: catechols were dissolved in DMSO immediately prior to assay (10 mM). HRP (Sigma, P6782, 1000 units/mg), was dissolved in phosphate buffered saline (PBS) at a concentration of 40 ug/ml. Fresh hydrogen peroxide (50 mM) was prepared from a 30% w/w solution (Sigma, H1009). Incubations were carried out in a water bath maintained at 37° C. Exact volumes varied depending on the catechol, but typically they comprised 1.92 ml PBS, 20 μl DMSO, 20 μl hydrogen peroxide and 20 μl drug in a 4 ml amber glass vial. Prior to addition of the drug, the vial was pre-incubated for 10 min. The reaction was initiated by the addition of 20 μl HRP. Samples (100 μl) were then removed at intervals, added to 100 μl acetonitrile and placed on ice. At the end of the incubation, samples were centrifuged (12000 g, 1 min) to remove precipitated protein and the supernatants placed in polypropylene hplc vials for analysis. Control incubations containing no HRP were carried out in the same way.
HPLC was performed using a Waters 2695 Separations Module with a sample compartment maintained at 10° C., and a Waters 2996 Photodiode Array Detector. The column was an ACE C18, 3 μm particle size, 125×3 mm (Hichrom) maintained at 30° C. Compounds were eluted with varying proportions of A: 5 mM KH2PO4, 5 mM H3PO4, and B: 75% acetonitrile, 25% water at a flow rate of […], in order to achieve a similar starting peak area for each catechol. Occasionally, in order to achieve a better resolution of the products, the latter was replaced with 100% methanol. Spectral data was collected from 220 nm to 500 nm, sampling rate 2/sec, 1.2 nm resolution. Data was analysed using Waters Millennium software.
Results: The loss of peak area at 300 nm of the prodrug was plotted against time, and a straight line fitted to the data. Loss of peak area was used to approximate the relative rates of loss of each catechol. The slope of the line-of-best-fit was then divided by the HRP concentration to give a corrected disappearance (see Table 3).

tumor cells = assay: Tumor cell cytotoxicity, MTT assay; type: cell-based; conditions: tumor cells treated for 24 hours
Method: Exponentially growing tumor cells were treated with the following compounds for 24 hours. Insoluble compounds were formulated in a small amount (0.3%) of DMSO for biological evaluation. Cell viability was determined by the calorimetric MTT assay using 3(4,5-dimethylthiazol-2-yl)-2,5-diphenyl-2H-tetrazolium bromide according to well-established procedures (see Berridge, et al. (1996) for a general protocol of this type of assay).

MHEC-5T tumors = assay: Reduction in tumor blood flow / functional tumor vessels (fluorescent beads); type: in vivo, mice; conditions: for Blood Flow at 10 mg/kg (% vessel area of control): MHEC-5T tumor-bearing SCID mice, 24 hours after dosing
Method: (§1) Catechols were dissolved in 50% DMSO (2 mg/kg) prior to intravenous (iv) administration (i.v.) to tumor-bearing mice. MHEC-5T tumors were established by subcutaneous injection of 0.5×10^6 cultured MHEC5-T cells (German Collection of Microorganisms and Cell Culture, Braunschweig, Germany) into the right flank of Fox Chase CB-17 severe combined immunodeficient (SCID) mice. Tumor grafts grew palpable within one week and reached the limited size (15×15 mm) within 10 days. Tumor bearing mice were injected intraperitoneally with saline control or various dosages of CA1P or CA4P after the transplanted tumor reached a size of 300 mm^3 (a size without development of necrosis). Twenty-four hours later they were injected with 0.25 ml of fluorescent FluoSphere beads (0.1 μm beads conjugated with blue fluorescent tag (F-8789, Molecular Probes, Eugene, Oreg.) and diluted 1:6 in physiological saline) in the tail vein, and sacrificed after 3 minutes. Tumors were then excised for cryosections. Cryosections of 8 μm thickness were directly examined under a fluorescent microscope. Functional blood vessels were indicated by blue fluorescence from injected microbeads. For quantification, three sections from three tumors treated in each group were examined and in each section, more than 70% of the area was automatically recorded with a microscopic digital camera at ×10 magnification. A computer program named Stage Pro (Media Cybernetics, Md.) was used to control the picture recording. Image analysis was performed with Image Plus software (Media Cybernetics, Md.). The results were expressed as vessel area per mm^2 in percentage of the control in Table 2.
as §1, with “The effect of CA1P on tumor blood flow was evaluated by quantifying the number of functional tumor vessels” for “Catechols were dissolved”, “treated murine tumors.” for “50% DMSO (2 mg/kg) prior to intravenous (iv) administration (i.v.) to tumor-bearing mice.”, “as in Example 4c.” for “by subcutaneous injection of 0.5×10^6 cultured MHEC5-T cells (German Collection of Microorganisms and Cell Culture, Braunschweig, Germany) into the right flank of Fox Chase CB-17 severe combined immunodeficient (SCID) mice. Tumor grafts grew palpable within one week and reached the limited size (15×15 mm) within 10 days.”, “MD)” for “Md.)”, “MD).” for “Md.).”, “control.” for “control in Table 2.”

Purified tubulin = assay: Inhibition of tubulin polymerization (turbidimetric, 350 nm); type: biochemical; conditions: purified tubulin 1 mg/ml, read-out: Tubulin Binding (uM IC50)
Method: The method of Verdier-Pinard (1998, Molec. Pharmacol. 53, 62-76) was used to assay catechol compounds for inhibition of tubulin polymerization. Tubulin polymerization was followed turbidimetrically at 350 nm on an Agilent 8453 spectrophotometer equipped with a kinetics program, a jacketed cell holder, and two microprocessor-controlled water baths. Purified tubulin (1 mg/ml) was induced to polymerize in a monosodium glutamate/GTP solution by a jump in temperature. Absorbance was recorded every 10 seconds and the data was analyzed by a GraphPad Prism program.

[2] = system: murine adenocarcinoma CaNT; assay: Tumor growth control in CaNT murine tumor model; type: in vivo, mice; conditions: single doses of 100, 200, and 400 mg/kg i.p., FIG. 5
Method: The murine adenocarcinoma CaNT was grown subcutaneously on the back of 12- to 16-week old CBA/Gy fTO mice. Tumors were initiated by the injection of 0.05 ml of a crude tumor cell suspension prepared from a donor mouse. Animals were selected for treatment after 3 or 4 weeks, when tumors had reached a geometric mean diameter of 5 to 6.5 mm. CA1P and CA4P were dissolved in 0.9% saline at various concentrations and injected intraperitoneally into tumor bearing mice. Each treatment group consisted of between five and nine mice. A control treatment group was injected with 0.9% saline.

[3] = system: murine adenocarcinoma CaNT; assay: Functional vascular volume of tumor vessels (Hoechst 333342); type: in vivo, mice
Method: The effect of CA1P on tumor blood flow was evaluated by quantification of the functional volume of tumor vessels in treated murine tumors using a procedure previously described in detail and incorporated by reference herein (Smith K A, Br. J. Cancer, 57:247-253, 1988). The murine adenocarcinoma CaNT was grown subcutaneously on the back of 12- to 16-week old CBA/Gy fTO mice. Tumors were initiated by the injection of 0.05 ml of a crude tumor cell suspension prepared from a donor mouse. Animals were selected for treatment after 3 or 4 weeks, when tumors had reached a geometric mean diameter of 5 to 6.5 mm. CA1P and CA4P were dissolved in 0.9% saline at various concentrations and injected intraperitoneally into tumor bearing mice. Each treatment group consisted of between five and nine mice. A control treatment group was injected with 0.9% saline. At 24 hours post-injection, each mouse was injected intravenously with a 10 mg/kg dose of the fluorescent DNA-binding dye Hoechst 333342 and sacrificed 1 minute later. Tumors were immediately excised and bisected. Frozen tumor sections were cut at three levels and viewed under UV excitation where the fluorescent staining of perivascular cells identified perfused vessels. Vascular volumes were quantified based on a random point scoring system previously described and incorporated by reference herein (Chalkley H W, J. Natl Cancer Institute, 4: 47-53, 1943). All estimates were based on counting 100 fields from sections cut at each of the 3 different levels and the calculated vascular volumes were expressed as a percentage of the mean value for control tumors.

tubulin = conditions: cited from earlier work
[4] = cited from earlier work

Structure (SMILES)	Relative Activation (% Control) [1]	Slope/Hrp [1]	IC50 (tumor cells; 24 h)	other results
C=CCc1ccc(/C=C\c2cc(OC)c(OC)c(OC)c2)c(O)c1O [ZSB-77, 3-Allyl-6-[(Z)-2-(3,4,5-trimethoxyphenyl)vinyl]-1,2-dihydroxybenzene]	1.875 % Control	−19783	0.748 µM	–
COc1cc(/C=C\c2ccc(O)c(O)c2O)cc(OC)c1OC	–	–	0.069 µM	Blood Flow at 10 mg/kg (% vessel area of control) (MHEC-5T tumors): 26.7 % vessel area of control
CCOc1ccc(/C=C\c2cc(OC)c(OC)c(OC)c2)c(O)c1O [ZSB-81]	–	–	–	IC50 (tumor cells): 0.094 µM
CCc1ccc(/C=C\c2cc(OC)c(OC)c(OC)c2)c(O)c1O [ZSB-76, 3-Ethyl-6-[(Z)-2-(3,4,5-trimethoxyphenyl)vinyl]-1,2-dihydroxybenzene]	6.743 % Control	−5502	0.542 µM	–
COc1cc(/C=C\c2ccc([N+](=O)[O-])c(O)c2O)cc(OC)c1OC	–	−1902300	0.28 µM	–
COc1cc(/C=C\c2cc(Br)cc(O)c2O)cc(OC)c1OC [ZSB-74, 4-Bromo-6-[(Z)-2-(3,4,5-trimethoxyphenyl)vinyl]-1,2-dihydroxybenzene]	0.203 % Control	−182825	0.34 µM	IC50 (Purified tubulin): 2.1 µM
COc1cc(/C=C\c2cccc(OP(=O)([O-])[O-])c2OP(=O)([O-])[O-])cc(OC)c1OC.[Na+].[Na+].[Na+].[Na+] [ZSB-36, 2′,3′diphosphate-3,4,5-trimethoxy-(Z)-stilbene, tetrasodium salt]	–	–	–	Blood Flow at 10 mg/kg (% vessel area of control) (MHEC-5T tumors): 94 % vessel area of control; IC50 (tumor cells): 0.4 µM
COc1cc(/C=C\c2cc(-c3ccccc3)cc(O)c2O)cc(OC)c1OC [ZSB-80, 4-Phenyl-6-[(Z)-2-(3,4,5-trimethoxyphenyl)vinyl]-1,2-dihydroxybenzene]	0.017 % Control	−2158250	–	IC50 (tumor cells): 1.56 µM
COc1ccc(/C=C\c2cc(OC)c(OC)c(OC)c2)cc1OP(=O)([O-])[O-].[Na+].[Na+] [CA4P, Combretastatin A-4 Disodium Phosphate Prodrug, reference compound]	–	–	–	effect on tumor growth [2]: no measurable effect on tumor growth; ED50 (vascular effect) (MHEC-5T tumors; functional vessel number per mm^2, i.p., 24 hr, MHEC-5T tumors): 43 mg/kg; blood flow in the central region of tumors (MHEC-5T tumors; spatial distribution of blood vessel shutdown): blood flow reduction; effect on vascular volume ([3]; doses below 50 mg/kg i.p.): no significant effect; dose required to produce an effect similar to that of 1 mg/kg of CA1P ([3]; functional vascular volume): 25 mg/kg
COc1cc(/C=C\c2ccc(F)c(O)c2O)cc(OC)c1OC	0.006 % Control	−6675900	0.546 µM	–
COc1cc(/C=C\c2ccc(C)c(O)c2O)cc(OC)c1OC [ZSB-75, 3-Methyl-6-[(Z)-2-(3,4,5-trimethoxyphenyl)vinyl]-1,2-dihydroxybenzene]	1.703 % Control	−21783	0.9 µM	–
C=CCOc1ccc(/C=C\c2cc(OC)c(OC)c(OC)c2)c(O)c1O	–	−16925	0.007 µM	Blood Flow at 10 mg/kg (% vessel area of control) (MHEC-5T tumors): 60 % vessel area of control
COc1ccc(/C=C\c2cc(OC)c(OC)c(OC)c2)cc1O [CA-4, Combretastatin A-4]	–	–	–	tubulin binding activity (tubulin): potent; solubility in human plasma [4]: insolubility
COc1cc(/C=C\c2cccc(O)c2O)cc(OC)c1OC [ZSB-82, 6-[(Z)-2-(3,4,5-Trimethoxyphenyl)vinyl]-1,2-dihydroxybenzene]	0.029 % Control	−1269800	0.143 µM	IC50 (Purified tubulin): 6.2 µM
